Data on 26 compounds can be found in patent publication US12365686B2, “Compound as porcupine inhibitor and use thereof” (JIANGSU KANION PHARMACEUTICAL CO., LTD., priority 2019, dated 2025).

Where a name gives a salt, the structure may show the parent alone. Where only a bound is given, the exact number is not on record here.

The test system of data set [1] is STF reporter gene for WNT pathway (Porcupine of the Wnt signaling pathway). Briefly: Inhibitory activity on Super-Top-Flash (STF) reporter gene. The class given is cell-based. The settings on record: HEK293 STF and L wnt3A cells 1:1, 24 hours, Bright-Glo. On the procedure:
1. Assay of Inhibitory Activity on Super-Top-Flash (STF) Reporter Gene
HEK293 STF and L wnt3A cells were planted at a ratio of 1:1 in a white 96-well plate with 80 μL of cell suspension per well, which contained 20,000 HEK293 STF cells and 20,000 L wnt3A cells. The cell plate was placed in a carbon dioxide incubator for culture overnight.
The assay compound was serially diluted 5-fold with a discharge gun to the 8th concentration, that is, from 400 μM to 5.12 nM, in duplicate. 78 μL of medium was added to the middle plate, and then 2 μL of the serially diluted compound was transferred to each well of the middle plate according to the corresponding position. After mixing, 20 μL of the mixture was transferred to each well of the cell plate. The cell plate was placed in a carbon dioxide incubator for 24 hours.
100 μL of Promega Bright-Glo reagent was added to each well of the cell plate, and the cell plate was incubated at room temperature for 10 minutes to stabilize the luminescence signal. A multi-label analyzer was used to read results.
The original data of the multi-label analyzer was used for calculation, and the value of IC50 can be obtained by curve fitting. Table 1 provides data of the inhibitory activity of the compounds of the present disclosure on the Wnt signaling pathway.
(In general: In a reporter assay the amount or activity of a reporter protein is the signal.)

In another data set the test system is Capan-2 cells. The data set is described as follows: Anti-proliferative activity on Capan-2 cells. In kind it is cell-based. The settings on record: Homo sapiens, Capan-2, 120 h; 5 days, CellTiter-Glo. On the procedure:
2. Assay of Anti-Proliferative Activity on Capan-2 Cells
Capan-2 cells were planted in a white 96-well plate with 80 μL of cell suspension per well, which contained 5000 Capan-2 cells. The cell plate was placed in a carbon dioxide incubator for culture overnight.
The assay compound was serially diluted 3-fold with a discharge gun to the 9th concentration, that is, from 200 μM to 30 nM, in duplicate. 78 μL of medium was added to the middle plate, and then 2 μL of the serially diluted compound was transferred to each well of the middle plate according to the corresponding position. After mixing, 20 μL of the mixture was transferred to each well of the cell plate. The cell plate was incubated in a carbon dioxide incubator for 5 days. Another cell plate was prepared, and read on the day of drug addition. The signal value was used as the maximum value (The value of Max in the equation below) in data analysis. 25 μL of chemiluminescence detection reagent for cell viability was added to each well of this cell plate, and this cell plate was incubated at room temperature for 10 minutes to stabilize the luminescence signal. A multi-label analyzer was used to read results.
After the cell plate was cultured for 5 days, 25 μL of Promega CellTiter-Glo reagent was added to each well of the cell plate. The cell plate was incubated at room temperature for 10 minutes to stabilize the luminescence signal. A multi-label analyzer was used to read results.
The value of IC50 can be obtained by curve fitting. Table 2 provides the inhibitory activity of the compounds of the present disclosure on Capan-2 cell proliferation.
On the technique in general: ATP-based viability assays read luminescence as a measure of living cells.

Data set [2] in a line: Pharmacokinetic evaluation of compounds in mice. The class given is in vivo. The settings on record: mouse, plasma, male CD-1 mice; for clearance / bioavailability / half-life / Vd: IV 0.5 mg/kg; for bioavailability / AUC(0-t): PO 2.5 mg/kg; for half-life: read-out: T1/2 IV (converted); for Vd: read-out: Vdss; for AUC(0-t): read-out: AUC0-last PO; for Cmax: single dose, route not stated (IV 0.5 mg/kg, PO 2.5 mg/kg). The protocol: Assay 4: Pharmacokinetic Evaluation of Compounds
Assay purpose: Pharmacokinetics of compounds in […] mice was assayed.
CD-1 mice (male, 7-9 weeks old, Shanghai Slack)
The pharmacokinetic characteristics of rodents after intravenous (IV) and oral (PO) administration of compounds were assayed by standard protocols. In the assay, mice were given a single intravenous injection and oral administration. The vehicle for intravenous injection was water. The oral vehicle was 0.5% hypromellose. Four male CD-1 mice were used in this project. Two mice were administered intravenously at a dose of 0.5 mg/kg, and plasma samples were collected at 0 h (before administration) and 0.083, 0.25, 0.5, 1, 2, 4, 8, and 24 h after administration. The other two mice were orally administered by gavage at a dose of 2.5 mg/kg, and plasma samples were collected at 0 h (before administration) and 0.25, 0.5, 1, 2, 4, 8, and 24 h after administration. Whole blood samples within 24 hours were collected, and centrifuged at 3000 g for 15 minutes. The supernatant was separated to obtain a plasma sample, and protein was precipitated by adding 4 times volume of acetonitrile solution containing internal standard. The mixture was centrifuged to obtain a supernatant, and an equal volume of water was added to the obtained supernatant. The mixture was then centrifuged to obtain a supernatant for injection. The blood drug concentration was quantitatively analyzed by LC-MS/MS analysis method, and pharmacokinetic parameters were calculated, such as peak concentration (Cmax), clearance rate (CL), half-life (T1/2), […] (Vdss), area under the drug-time curve (AUC0-last), and bioavailability (F), etc.
The assay results are shown in Table 4: The compounds of the present disclosure have good pharmacokinetic properties.

For data set [3], the system named is human pancreatic cancer Capan-2 xenograft tumor. Briefly: In vivo drug efficacy on Capan-2 transplanted tumor in nude mice. The protocol:
3. Assay of In Vivo Drug Efficacy on Capan-2 Transplanted Tumor in Nude Mice
Capan-2 cells were cultured in McCoy's 5A medium, containing 10% fetal bovine serum FBS, in a 37° C. incubator with 5% CO2. Tumor cells were collected after passaging and growing to a suitable concentration and during the logarithmic growth phase. The cells resuspended in McCoy's 5A medium were counted and the cell suspension was adjusted to a concentration of 2×10^7/mL for inoculation.
Establishment of human pancreatic cancer Capan-2 xenograft tumor. Cells were collected and the concentration was adjusted to 2×10^7 (resuspend with McCoy's 5A medium to a cell suspension containing 50% Martigel). Under aseptic conditions, 0.1 mL of tumor cells was injected subcutaneously into the right back of the mouse, and the number of cells inoculated per mouse was 2×10^6. After the tumor was grown to a certain size, digital vernier calipers was used to measure the length (a) and width (b) of the tumor, and the tumor volume was calculated. The calculation formula of tumor volume (TV) was: TV=a×b^2/2.
Capan-2 tumor cells were inoculated. When the tumor was grown to about 150 cubic millimeters, mice were divided into groups with 6 mice in each group. The day of grouping was regarded as day 0, and the drug was administered on the day of grouping. During the assay, the animal's body weight and tumor size were measured twice a week, and the animal's clinical symptoms were observed and recorded every day. For each administration, the most recently weighed animal body weight was referred to.
The evaluation index of anti-tumor activity is relative tumor proliferation rate T/C (%), wherein T/C (%)>40% means ineffective, and T/C (%)<40% and statistically P<0.05 means effective. The calculation formula of T/C (%) is: T/C (%)=(TRTV/CRTV)×100%. TRTV is relative tumor volume of the treatment group, and CRTV is relative tumor volume of the negative control group. TGI (%)^b tumor inhibition rate=(average tumor volume or weight of negative control group-average tumor volume or weight of administration group)/average tumor volume or weight of negative control group×100%. TGI (%)^a=[(1−(average tumor volume of a certain administration group at the time of measurement-average tumor volume of the administration group at the beginning of the administration))/(average tumor volume of vehicle control group at the time of measurement-average tumor volume of the vehicle control group at the beginning of the administration)]×100%.

The mark [4] stands for this setting: 5 mg/Kg, BID, 31 days, Capan-2 Xenograft model.

`Cc1cc(-c2ncc(CNc3nccn4c(C(=O)Nc5ccccc5)cnc34)cc2C)ccn1` [15 (formate)] returned an IC50 in data set [1] of 0.15 nM.
As for `Cc1cc(-c2ncc(CNc3nccn4c(-c5cccnc5)cnc34)cc2C)ccn1` [Compound 2], the IC50 in data set [1] came out at 0.12 nM; with Capan-2 cells it was 4.26 nM.
Take `Cc1cc(-c2ncc(CNc3nccn4c(-c5ccc(F)cc5)cnc34)cc2C)ccn1` [Compound 3]: in data set [1], the IC50 was determined as 0.96 nM.
Regarding `Cc1cc(-c2ncc(CNc3nccn4c(-c5cnn(C)c5)cnc34)cc2C)ccn1` [Compound 4], the IC50 in data set [1] came to 0.14 nM; in the data set with Capan-2 cells, 964 nM.
Regarding `Cc1cc(-c2ncc(CNc3nccn4c(N5CCNCC5)cnc34)cc2C)ccn1` [Compound 5], half-maximal inhibition in data set [1] (IC50) required 9.7 nM.
As for `CC(=O)N1CCN(c2cnc3c(NCc4cnc(-c5ccnc(C)c5)c(C)c4)nccn23)CC1` [Compound 6], the IC50 in data set [1] was determined as 0.58 nM.
With `Cc1cc(-c2ncc(CNc3nccn4c(-c5ccc(C#N)cc5)cnc34)cc2C)ccn1` [Compound 8], the results for the IC50 (in data set [1]; in the data set on Capan-2 cells) were 6.56 nM and 109 nM, respectively.
On to `COc1ccc(-c2cnc3c(NCc4cnc(-c5ccnc(C)c5)c(C)c4)nccn23)cc1` [Compound 9 (formate)], for which the results for the IC50 (in data set [1]; in the data set on Capan-2 cells) were 8.95 nM and 103 nM, respectively.
`Cc1cc(-c2ncc(CNc3nccn4c(C5CC5)cnc34)cc2C)ccn1` [Compound 10]: the concentration for half-maximal inhibition (IC50) in data set [1] was 13.5 nM; with Capan-2 cells, greater than 1000 nM.
`Cc1cc(-c2ncc(CNc3nccn4c(C5CCN(C(C)C)CC5)cnc34)cc2C)ccn1` [Compound 13 (formate)] yielded an IC50 in data set [1] of 0.56 nM. This lies in the sub-nanomolar range.
In data set [1], `CC(=O)N1CCC(c2cnc3c(NCc4cnc(-c5ccnc(C)c5)c(C)c4)nccn23)CC1` [Compound 14] had an IC50 of less than 0.001 nM.
`Cc1cc(-c2ncc(CNc3nccn4c(C(=O)N(C)C)cnc34)cc2C)ccn1` [Compound 16] yielded an IC50 in data set [1] of less than 0.001 nM.
Consider `Cc1cc(-c2ccc(CNc3nccn4c(-c5ccccc5)cnc34)cc2C)ccn1` [Compound 17], for which the values for the IC50 (in data set [1]; in the data set with Capan-2 cells) were 0.23 nM and 1.45 nM, respectively.
Turning to `Cc1cc(CNc2nccn3c(-c4ccccc4)cnc23)cnc1-c1ccnn1C` [Compound 18], the IC50 in data set [1] stood at 0.0128 nM; in the data set with Capan-2 cells it was 19.1 nM.
As to `Cc1cc(-c2ccc(CNc3nccn4c(-c5ccccc5)cnc34)cn2)ccn1` [Compound 19], the IC50 in data set [1] was 0.017 nM; with Capan-2 cells, 4.61 nM.
As to `COc1cc(-c2ncc(CNc3nccn4c(-c5ccccc5)cnc34)cc2C)ccn1` [Compound 20], the figures for the IC50 (in data set [1]; with Capan-2 cells) were 0.4 nM and 18.5 nM, respectively.
Consider `Cc1cc(-c2ncc(CNc3nccn4c(-c5ccccc5)cnc34)cc2F)ccn1` [Compound 21], for which, in the data set on Capan-2 cells, half-maximal inhibition (IC50) was put at 0.43 nM.
On to `Cc1cc(-c2ccc(CNc3nccn4c(-c5ccccc5)cnc34)cc2C#N)ccn1` [Compound 22 (formate)], for which the IC50 with Capan-2 cells is 1.24 nM. Also, in data set [2], the clearance came out at 8.24 mL/min/kg, the bioavailability was 71.9%, the half-life is 3.13 h and the Vd came out at 1.09 L/kg. Moreover, in data set [2], the AUC(0-t) was 11.9 µM·h and the Cmax worked out at 1820 nM.
Regarding `Cc1cc(-c2ccc(CNc3nccn4c(-c5ccccc5)cnc34)cc2N(C)C)ccn1` [Compound 23], the half-inhibitory concentration (IC50) with Capan-2 cells was 0.74 nM.
In the case of `Cc1cc(-c2ncc(CNc3nccn4c(-c5cccc(Cl)c5)cnc34)cc2C)ccn1` [Compound 28 (hydrochloride)], half-maximal inhibition in data set [1] (IC50) was put at 0.86 nM. The compound further showed an IC50 with Capan-2 cells of 1.43 nM. For the same compound, in data set [2], the clearance amounted to 4.16 mL/min/kg, the bioavailability was 66.6%, the half-life is 2.6 h and the Vd is 0.553 L/kg. Further, in data set [2], the AUC(0-t) was found to be 15.1 µM·h and the Cmax is 2340 nM.
`Cc1cc(-c2ncc(CNc3nccn4c(-c5cccc(F)c5)cnc34)cc2C)ccn1` [Compound 29 (hydrochloride)] returned an IC50 in data set [1] of 0.38 nM. Moreover, in the data set on Capan-2 cells, the IC50 was found to be 0.35 nM. Further, in data set [2], the clearance came to 5.05 mL/min/kg, the bioavailability was 89%, the half-life is 2.78 h and the Vd amounted to 0.641 L/kg. In addition, in data set [2], the AUC(0-t) turned out to be 17.3 µM·h and the highest level (Cmax) was 2640 nM.
`Cc1cc(-c2ccc(CNc3nccn4c(-c5ccccc5)cnc34)c(F)c2)ccn1` [Compound 31]: half-maximal inhibition in the data set with Capan-2 cells (IC50) required 4.7 nM. This counts as single-digit nanomolar.
Still for that read-out and setting: for `Cc1cc(-c2ncc(C(C)Nc3nccn4c(-c5ccccc5)cnc34)cc2C)ccn1` (stereo not drawn) [Compound 32 (hydrochloride)] the value was 3.04 nM.
On to `Cc1cc(-c2ncc(CNc3nccn4c(-c5cc(F)cc(F)c5)cnc34)cc2OC2CCN(C)CC2)ccn1` [Compound 34], for which, in the data set with Capan-2 cells, the IC50 worked out at 1.9 nM. This IC50 is about 1.6-fold lower than that of the compound before.
With `Cc1cc(-c2ncc(C(CO)Nc3nccn4c(-c5ccccc5)cnc34)cc2C)ccn1` (stereo not drawn) [Compound 35], the IC50 in the data set with Capan-2 cells worked out at 10.1 nM.
Regarding `Cc1cc(-c2ncc(CC(=O)Nc3ccc(-c4cnccn4)cn3)cc2C)ccn1` [LGK974, reference compound], the “inhibitory effect on human pancreatic cancer Capan-2 xenograft tumor (in words)” value in data set [3] (5 mg/Kg BID (twice a day) for 31 days) is given as “inhibitory effect”. Also, in data set [3] (setting [4]), the T/C % turned out to be 36.33% and the TGI % turned out to be 78.3%.

A word on the IC50: it is the midpoint of a concentration-inhibition curve. Lower therefore signals higher potency. Usually clearance stands for a measure of how efficiently the substance is removed, as volume per time. A higher clearance goes with efficient removal. What is called bioavailability is the share of a dose that reaches the circulation, judged against a reference dose that is usually intravenous. A high value points to much systemic uptake. What is called Cmax is the maximum level reached in the sampled fluid or tissue.
